“And” between values parts separate entries of the source, which are not always exact repeats. Equal entries are not always repeated.

The assay has as its target T1, POsterior Segregation (Caenorhabditis elegans, UniProt G5EF15).
T1 sequence (G5EF15 whole entry): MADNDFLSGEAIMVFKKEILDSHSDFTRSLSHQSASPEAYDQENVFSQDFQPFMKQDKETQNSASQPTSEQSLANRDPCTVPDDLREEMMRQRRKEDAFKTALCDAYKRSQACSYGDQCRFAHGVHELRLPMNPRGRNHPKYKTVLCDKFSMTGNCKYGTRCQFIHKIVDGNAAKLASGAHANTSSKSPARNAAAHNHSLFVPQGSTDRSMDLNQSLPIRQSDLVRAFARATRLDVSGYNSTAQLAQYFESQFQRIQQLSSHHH
Nature of the assay: inhibitors of POS-1/mex-3 RNA binding, dose response, biochemical, fluorescence polarization (AID 1964).
For `CCOc1ccc(N2C(=O)NC(=O)C(=Cc3c[nH]c4ccccc34)C2=O)cc1` [(5E)-1-(4-ethoxyphenyl)-5-(1H-indol-3-ylmethylidene)-1,3-diazinane-2,4,6-trione], a half-maximal effect (EC50) was put at 20.9 µM.
For `O=C1NC(=S)N(c2ccc(F)cc2)C(=O)C1=Cc1ccco1` [(5E)-1-(4-fluorophenyl)-5-(2-furanylmethylidene)-2-sulfanylidene-1,3-diazinane-4,6-dione] the value was 10.4 µM.
For `O=C1NC(=O)N(CCc2ccc(F)cc2)C(=O)C1=CNCCCn1ccnc1` [(5E)-1-[2-(4-fluorophenyl)ethyl]-5-[(3-imidazol-1-ylpropylamino)methylene]barbituric acid] the value was more than 300 µM.
The value for `C=CCN1C(=O)NC(=O)C(=CNc2ccc(N(CC)CC)cc2)C1=O` [(5E)-1-allyl-5-[[4-(diethylamino)anilino]methylene]barbituric acid] was 109 µM.
For `CCN(CC)c1ccc(NC=C2C(=O)NC(=O)N(Cc3ccccc3)C2=O)cc1` [(5E)-1-benzyl-5-[[4-(diethylamino)anilino]methylene]barbituric acid], the half-maximal effective concentration (EC50) was 30.1 µM and > 300 µM.
The compound `O=C1NC(=O)N(Cc2ccccc2)C(=O)C1=CNc1ccc(CN2CCOCC2)cc1` [(5E)-1-benzyl-5-[[4-(morpholin-4-ylmethyl)anilino]methylidene]-1,3-diazinane-2,4,6-trione] yielded an EC50 of more than 300 µM.
For `Cc1c(NC=C2C(=O)NC(=O)N(Cc3ccccc3)C2=O)c(=O)n(-c2ccccc2)n1C` [(5E)-1-benzyl-5-[[(1,5-dimethyl-3-oxo-2-phenylpyrazol-4-yl)amino]methylidene]-1,3-diazinane-2,4,6-trione] the value was more than 300 µM.
For `CCCCCCN1C(=O)NC(=O)C(=CNCCCn2ccnc2)C1=O` [(5E)-1-hexyl-5-[[3-(1-imidazolyl)propylamino]methylidene]-1,3-diazinane-2,4,6-trione] the value was more than 300 µM; for `O=C1NC(=O)N(CCc2ccccc2)C(=O)C1=CNCCCn1ccnc1` [(5E)-5-[(3-imidazol-1-ylpropylamino)methylene]-1-phenethyl-barbituric acid], more than 300 µM.
Compound `COc1ccc(N2C(=O)NC(=O)C(=Cc3c[nH]c4ccc(Br)cc34)C2=O)c(OC)c1` [(5E)-5-[(5-bromo-1H-indol-3-yl)methylene]-1-(2,4-dimethoxyphenyl)pyrimidine-2,4,6(1H,3H,5H)-trione] gave a half-maximal effective concentration (EC50) of more than 300 µM.
The value for `CCN(CC)CCNC=C1C(=O)NC(=O)N(CCc2ccccc2)C1=O` [(5E)-5-[[2-(diethylamino)ethylamino]methylene]-1-phenethyl-barbituric acid] was more than 300 µM; that for `CN(C)CCCNC=C1C(=O)NC(=O)N(CCc2ccc(F)cc2)C1=O` [(5E)-5-[[3-(dimethylamino)propylamino]methylene]-1-[2-(4-fluorophenyl)ethyl]barbituric acid] was more than 300 µM.
The value for `CN(C)c1ccc(NC=C2C(=O)NC(=O)N(CCC3=CCCCC3)C2=O)cc1` [(5Z)-1-[2-(cyclohexen-1-yl)ethyl]-5-[[[4-(dimethylamino)phenyl]amino]methylidene]-1,3-diazinane-2,4,6-trione] was more than 300 µM.
The value for `CCN(CC)CCNC=C1C(=O)NC(=O)N(Cc2ccccc2)C1=O` [(5Z)-1-benzyl-5-[[2-(diethylamino)ethylamino]methylene]barbituric acid] was more than 300 µM; that for `CCOC(=O)C1C(=O)C(=Cc2cn(CC(=O)N3CCCC3)c3ccccc23)S/C1=N\c1ccccc1` (centres undefined) [(5Z)-2-anilino-4-keto-5-[[1-(2-keto-2-pyrrolidino-ethyl)indol-3-yl]methylene]thiophene-3-carboxylic acid ethyl ester] was 47.5 µM.
Compound `C/N=C1/S/C(=C\c2ccc(N3CCCC3)c(F)c2)C(=O)N1C` [(5Z)-5-(3-fluoro-4-pyrrolidino-benzylidene)-3-methyl-2-methylimino-thiazolidin-4-one] had an EC50 of 5.9 µM.
The compound `CC1=C(C#N)C(=O)N(C)C(=O)C1=CN` [(5Z)-5-(aminomethylidene)-1,4-dimethyl-2,6-dioxopyridine-3-carbonitrile] came in with an EC50 of more than 300 µM.
Take `C=CCN1C(=O)NC(=O)C(=CCC=Nc2ccccc2)C1=O` [(5Z)-5-[(E)-3-phenylazanylprop-2-enylidene]-1-prop-2-enyl-1,3-diazinane-2,4,6-trione]: the half-maximal effective concentration (EC50) is more than 300 µM.
`Cc1cc(C=C2C(=O)NC(=O)N(c3ccccc3)C2=O)c(C)n1-c1ccc(F)cc1` [(5Z)-5-[[1-(4-fluorophenyl)-2,5-dimethyl-3-pyrrolyl]methylidene]-1-phenyl-1,3-diazinane-2,4,6-trione]: the EC50 is 101 µM.
For `COc1cccc(CN=Nc2ncnc(N)c2[N+](=O)[O-])c1OC` [(6-amino-5-nitro-pyrimidin-4-yl)-[(2,3-dimethoxybenzylidene)amino]amine] the value was 18.4 µM; for `C=CCc1cccc(C=Nn2cnnc2)c1O` [(6E)-2-allyl-6-[(1,2,4-triazol-4-ylamino)methylene]cyclohexa-2,4-dien-1-one], 226 µM; for `COc1ccc(N=Cc2cc3c(cc2O)OC(=N)C(C#N)C3c2ccccc2)cc1` (centres undefined) [(6E)-2-amino-6-[(4-methoxyanilino)methylidene]-7-oxo-4-phenyl-4H-1-benzopyran-3-carbonitrile], more than 300 µM.
`Cc1n[nH]c(C)c1Sc1ccccc1/N=C/C1C=C(Cl)C=C([N+](=O)[O-])C1=O` (centres undefined) [(6E)-4-chloranyl-6-[[[2-[(3,5-dimethyl-1H-pyrazol-4-yl)sulfanyl]phenyl]amino]methylidene]-2-nitro-cyclohexa-2,4-dien-1-one] had a half-maximal effective concentration (EC50) of more than 300 µM.
The value for `C=CC1=C(C(=O)O)N2C(=O)[C@@H](NC(=O)C(N=O)c3csc(N)n3)[C@H]2SC1` (stereo partly drawn) [(6R,7R)-7-[[2-(2-azanyl-1,3-thiazol-4-yl)-2-hydroxyimino-ethanoyl]amino]-3-ethenyl-8-oxidanylidene-5-thia-1-azabicyclo[4.2.0]oct-2-ene-2-carboxylic acid] was 49.8 µM; that for `CCn1nc(C)c(C=C2CCCC3=C2OC(=N)C(C#N)C3c2c(C)nn(CC)c2C)c1C` (centres undefined) [(8E)-2-amino-4-(1-ethyl-3,5-dimethyl-1H-pyrazol-4-yl)-8-[(1-ethyl-3,5-dimethyl-1H-pyrazol-4-yl)methylene]-5,6,7,8-tetrahydro-4H-chromene-3-carbonitrile] was 36 µM.
The value for `CCOC(=O)N1CCC2=C(C#N)C(=N)C(C#N)(C#N)[C@H](c3ccsc3)[C@H]2C1` [(8R,8aR)-6-amino-5,7,7-tricyano-8-(3-thienyl)-1,3,8,8a-tetrahydroisoquinoline-2-carboxylic acid ethyl ester] was 78.8 µM; that for `N#CC1=C2CCOC[C@@H]2[C@@H](c2ccsc2)C(C#N)(C#N)C1=N` [(8R,8aR)-6-amino-8-(3-thienyl)-1,3,8,8a-tetrahydroisochromene-5,7,7-tricarbonitrile] was more than 300 µM.
`CN1CCC2=C(C#N)C(=N)C(C#N)(C#N)[C@H](c3cccc(Cl)c3)C2C1` (stereo partly drawn) [(8S)-6-amino-8-(3-chlorophenyl)-2-methyl-1,3,8,8a-tetrahydroisoquinoline-5,7,7-tricarbonitrile] gave an EC50 of 12.5 µM.
For `CC(C)(C)OC(=O)N1CCC2=C(C#N)C(=N)C(C#N)(C#N)[C@H](c3cccnc3)[C@H]2C1` [(8S,8aR)-6-amino-5,7,7-tricyano-8-(3-pyridinyl)-1,3,8,8a-tetrahydroisoquinoline-2-carboxylic acid tert-butyl ester] the value was 61.7 µM.

For the origin of these results see BindingDB's records for doi:10.7270/Q28G8J4C (Broad Institute, 2009).
